Results as given in patent US20160221944A1, “PYRROLIDINE DERIVATIVES AS OXYTOCIN/VASOPRESSIN V1a RECEPTORS ANTAGONISTS” (ObsEva S.A., priority 2013, published 2016).

Columns and labels:
[1] = molecular target: vasopressin V1a receptor (Homo sapiens, UniProt P37288); assay: Binding to vasopressin V1a receptor; details: read-out: inhibition constant Ki to the vasopressin V1a receptor
[2] = In vivo stability: isomeric interconversion after single oral and intravenous doses in rats; set-up: species or system rat; details: female rats
Experimental: The animals used in this study were Sprague-Dawley, Crl: CD®BR albino rats. All animals were supplied by Charles River UK Ltd (Margate, Kent, UK). Animals were in the weight range 200-260 g and were approximately 2 months old. Rats were given a unique identity number and were identified by unique tail markings plus cage location.
The dose groups were as follows: 4 female were given an oral dose and 4 female were given an intravenous dose.
(§1) Dose formulations were prepared in an appropriate matrix; intravenous doses were prepared in NP3S, whilst oral doses were prepared in Labrasol:water (1:1 v/v).

[3] = Isomeric interconversion in dose formulations (HPLC); assay type: physicochemical; details: oral (Labrasol:water 1:1) and intravenous (NP3S) dose formulations, pre- and post-dose
Experimental: as §1

[4] = Qualitative solubility/crystallisation tests on 15 mg scale; assay type: physicochemical
[5] = test system: spontaneous uterine contractions; assay: Inhibition of spontaneous uterine contractions in anesthetized late-term pregnant rat; assay type: in vivo; details: oral, 10, 30 or 60 mg/kg; at any time during the 170-180 minutes observation
Text: Late-term pregnant (certified at days 19-21 of pregnancy) Sprague Dawley CD (SD) BR female rats (Charles River, Calco, Italy), weighing 350-400 g were anesthetized with urethane (1.05 g/kg, i.p.) and placed on a homeothermic operating table. A midline incision at the hypogastrium level was made, one pregnant uterine horn exposed and its tubal end (near the ovary) was closed by a ligature with surgical silk. […] After the surgical preparation, a 30-min stabilization period was observed and then the effects of increasing doses of compounds of the present invention (given as 10-min i.v. infusion, bolus i.v. or p.o.) were evaluated by measuring the resulting uterine contractions. For the i.v. administration (infusion or bolus) the uterine contractile activity was quantified by calculating the AUC during the 10-min injection period. The percent variation of the AUC values relative to the spontaneous uterine response observed after each compound administration was calculated in comparison to the value recorded before the first dose-administration (basal value). The effect of test compounds of the present invention was evaluated by comparing pre- and post-treatment luminal uterine pressure values. […] Statistical differences between treatment groups at each time-point were determined by using one-way ANOVA followed by Tukey test. […]

Sequence of vasopressin V1a receptor (P37288 whole entry, species assumed): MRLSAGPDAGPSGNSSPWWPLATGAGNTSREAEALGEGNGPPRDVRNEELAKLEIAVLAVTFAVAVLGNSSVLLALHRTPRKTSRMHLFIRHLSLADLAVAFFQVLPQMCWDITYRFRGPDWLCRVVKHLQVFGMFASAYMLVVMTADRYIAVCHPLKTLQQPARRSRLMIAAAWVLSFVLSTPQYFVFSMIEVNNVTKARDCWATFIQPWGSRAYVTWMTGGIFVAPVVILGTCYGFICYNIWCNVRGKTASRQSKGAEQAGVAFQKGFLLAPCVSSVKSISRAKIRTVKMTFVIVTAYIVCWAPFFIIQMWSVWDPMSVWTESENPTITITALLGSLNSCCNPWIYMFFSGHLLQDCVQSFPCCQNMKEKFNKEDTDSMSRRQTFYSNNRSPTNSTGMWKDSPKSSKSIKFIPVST

Compound: CO/N=C1/C[C@@H](CO)N(C(=O)c2ccc(-c3ccccc3C)cc2)C1 [(3Z,5S)-5-(hydroxymethyl)-1-[(2′-methyl-1,1′-biphenyl-4-yl)carbonyl]pyrrolidin-3-one O-methyloxime]
- Ki [1]: 120 nM
- [14C]-E-isomer present in plasma ([2]; 30 mg/kg oral or intravenous, plasma collected up to 6 hours): no evidence
- isomeric interconversion in vivo ([2]; 30 mg/kg, after oral or intravenous dose administration): no detectable isomeric interconversion
- interconversion to E-isomer during dose preparation or administration [3]: no detectable interconversion
- Qualitative solubility, Dissolves in: ([4]; DIPE, hot): 40 vol hot
- Qualitative solubility, Dissolves in: ([4]; IPA, hot): 4 vol hot
- Qualitative solubility, Dissolves in: ([4]; MIBK, hot): 4 vol hot
- Qualitative solubility, Dissolves in: ([4]; THF, cold): 4 vol cold
- Qualitative solubility, Comment ([4]; heptanes): insoluble in 20 vol
- Qualitative solubility, Dissolves in: ([4]; tBuOH, hot): 6 vol hot
- Qualitative solubility, Dissolves in: ([4]; toluene, cold): 2 vol cold

Compound: CO/N=C1\C[C@@H](CO)N(C(=O)c2ccc(-c3ccccc3C)cc2)C1 [(3E,5S)-5-(hydroxymethyl)-1-[(2′-methyl-1,1′-biphenyl-4-yl)carbonyl]pyrrolidin-3-one O-methyloxime]
- inhibition of uterine contraction [5]: no inhibition
